Source: patent US9440977B2, “Compositions, uses and methods for their preparation” (priority 2013, dated 2016)

How the values were obtained:
Assay in all cases: JAK activity, Invitrogen SelectScreen Biochemical Kinase Profiling, Z'-LYTE
Details in all cases: ATP concentration at Km
[1] = target: T1, JAK3 (Homo sapiens, UniProt P52333)
T1 sequence (P52333 1-1124): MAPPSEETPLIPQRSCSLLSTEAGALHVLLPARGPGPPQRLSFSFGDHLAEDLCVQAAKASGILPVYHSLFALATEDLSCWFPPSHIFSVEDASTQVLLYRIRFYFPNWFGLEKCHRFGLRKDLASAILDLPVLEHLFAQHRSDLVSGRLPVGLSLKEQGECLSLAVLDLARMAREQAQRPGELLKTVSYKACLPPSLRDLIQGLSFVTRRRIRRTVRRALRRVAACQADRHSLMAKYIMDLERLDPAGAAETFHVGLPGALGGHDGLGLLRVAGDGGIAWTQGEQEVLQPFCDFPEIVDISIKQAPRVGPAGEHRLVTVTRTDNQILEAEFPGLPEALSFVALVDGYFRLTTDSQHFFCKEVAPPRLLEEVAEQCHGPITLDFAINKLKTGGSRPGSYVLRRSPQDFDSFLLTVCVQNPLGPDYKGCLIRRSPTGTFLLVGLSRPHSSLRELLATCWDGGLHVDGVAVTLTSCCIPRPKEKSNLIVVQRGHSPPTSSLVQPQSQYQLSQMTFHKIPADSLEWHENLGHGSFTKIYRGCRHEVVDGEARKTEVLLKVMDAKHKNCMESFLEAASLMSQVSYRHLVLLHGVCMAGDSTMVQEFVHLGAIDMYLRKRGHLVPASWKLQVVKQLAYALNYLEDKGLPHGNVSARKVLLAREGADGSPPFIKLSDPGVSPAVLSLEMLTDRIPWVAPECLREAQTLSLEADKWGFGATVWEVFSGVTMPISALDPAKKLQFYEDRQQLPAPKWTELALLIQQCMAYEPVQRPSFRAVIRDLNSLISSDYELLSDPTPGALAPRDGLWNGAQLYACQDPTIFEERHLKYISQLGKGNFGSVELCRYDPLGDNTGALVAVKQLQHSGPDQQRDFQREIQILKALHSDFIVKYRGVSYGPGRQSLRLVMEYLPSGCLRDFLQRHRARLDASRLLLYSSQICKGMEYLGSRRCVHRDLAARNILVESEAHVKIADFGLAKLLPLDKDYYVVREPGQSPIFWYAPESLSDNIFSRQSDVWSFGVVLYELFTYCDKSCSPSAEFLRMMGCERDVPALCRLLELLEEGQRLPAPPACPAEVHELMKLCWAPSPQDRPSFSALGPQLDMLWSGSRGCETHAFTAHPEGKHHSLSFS
Experimental: (§1) JAK activity was determined using Invitrogen's SelectScreen® Biochemical Kinase Profiling Service using the Z'-LYTE Screening Protocol and Assay Conditions (ATP concentration at Km).

[2] = target: JAK2 (Homo sapiens, UniProt O60674)
Experimental: as §1

[3] = target: JAK1 (Homo sapiens, UniProt P23458)
Experimental: as §1

Chain of JAK2 (O60674 whole entry): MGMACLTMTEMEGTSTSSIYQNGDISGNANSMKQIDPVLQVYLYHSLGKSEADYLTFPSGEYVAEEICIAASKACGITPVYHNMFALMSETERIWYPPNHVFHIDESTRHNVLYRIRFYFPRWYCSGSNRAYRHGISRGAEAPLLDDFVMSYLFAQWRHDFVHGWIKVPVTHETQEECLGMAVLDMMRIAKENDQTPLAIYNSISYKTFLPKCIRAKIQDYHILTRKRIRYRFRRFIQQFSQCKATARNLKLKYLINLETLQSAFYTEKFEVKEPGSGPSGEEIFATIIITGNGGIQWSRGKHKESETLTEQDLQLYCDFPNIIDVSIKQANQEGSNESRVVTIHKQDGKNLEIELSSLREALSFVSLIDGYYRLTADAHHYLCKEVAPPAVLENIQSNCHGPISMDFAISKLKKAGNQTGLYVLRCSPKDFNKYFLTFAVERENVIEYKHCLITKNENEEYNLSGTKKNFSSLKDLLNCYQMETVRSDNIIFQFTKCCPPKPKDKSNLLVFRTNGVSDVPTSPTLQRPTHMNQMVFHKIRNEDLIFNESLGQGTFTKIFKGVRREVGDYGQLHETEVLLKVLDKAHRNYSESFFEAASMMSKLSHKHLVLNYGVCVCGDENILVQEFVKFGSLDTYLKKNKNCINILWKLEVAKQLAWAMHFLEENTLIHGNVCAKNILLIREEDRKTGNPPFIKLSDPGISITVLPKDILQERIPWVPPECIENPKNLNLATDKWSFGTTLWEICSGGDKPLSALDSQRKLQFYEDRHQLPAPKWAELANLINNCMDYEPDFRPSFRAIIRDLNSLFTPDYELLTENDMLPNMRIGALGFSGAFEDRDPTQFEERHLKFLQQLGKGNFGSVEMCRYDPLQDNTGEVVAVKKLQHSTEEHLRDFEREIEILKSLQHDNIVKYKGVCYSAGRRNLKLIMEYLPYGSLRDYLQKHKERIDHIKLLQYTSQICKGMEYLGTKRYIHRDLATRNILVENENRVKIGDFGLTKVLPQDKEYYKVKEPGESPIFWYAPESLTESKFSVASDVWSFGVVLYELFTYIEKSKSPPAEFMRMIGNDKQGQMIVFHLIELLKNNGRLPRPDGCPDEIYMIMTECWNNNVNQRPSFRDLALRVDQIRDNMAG
Chain of JAK1 (P23458 whole entry): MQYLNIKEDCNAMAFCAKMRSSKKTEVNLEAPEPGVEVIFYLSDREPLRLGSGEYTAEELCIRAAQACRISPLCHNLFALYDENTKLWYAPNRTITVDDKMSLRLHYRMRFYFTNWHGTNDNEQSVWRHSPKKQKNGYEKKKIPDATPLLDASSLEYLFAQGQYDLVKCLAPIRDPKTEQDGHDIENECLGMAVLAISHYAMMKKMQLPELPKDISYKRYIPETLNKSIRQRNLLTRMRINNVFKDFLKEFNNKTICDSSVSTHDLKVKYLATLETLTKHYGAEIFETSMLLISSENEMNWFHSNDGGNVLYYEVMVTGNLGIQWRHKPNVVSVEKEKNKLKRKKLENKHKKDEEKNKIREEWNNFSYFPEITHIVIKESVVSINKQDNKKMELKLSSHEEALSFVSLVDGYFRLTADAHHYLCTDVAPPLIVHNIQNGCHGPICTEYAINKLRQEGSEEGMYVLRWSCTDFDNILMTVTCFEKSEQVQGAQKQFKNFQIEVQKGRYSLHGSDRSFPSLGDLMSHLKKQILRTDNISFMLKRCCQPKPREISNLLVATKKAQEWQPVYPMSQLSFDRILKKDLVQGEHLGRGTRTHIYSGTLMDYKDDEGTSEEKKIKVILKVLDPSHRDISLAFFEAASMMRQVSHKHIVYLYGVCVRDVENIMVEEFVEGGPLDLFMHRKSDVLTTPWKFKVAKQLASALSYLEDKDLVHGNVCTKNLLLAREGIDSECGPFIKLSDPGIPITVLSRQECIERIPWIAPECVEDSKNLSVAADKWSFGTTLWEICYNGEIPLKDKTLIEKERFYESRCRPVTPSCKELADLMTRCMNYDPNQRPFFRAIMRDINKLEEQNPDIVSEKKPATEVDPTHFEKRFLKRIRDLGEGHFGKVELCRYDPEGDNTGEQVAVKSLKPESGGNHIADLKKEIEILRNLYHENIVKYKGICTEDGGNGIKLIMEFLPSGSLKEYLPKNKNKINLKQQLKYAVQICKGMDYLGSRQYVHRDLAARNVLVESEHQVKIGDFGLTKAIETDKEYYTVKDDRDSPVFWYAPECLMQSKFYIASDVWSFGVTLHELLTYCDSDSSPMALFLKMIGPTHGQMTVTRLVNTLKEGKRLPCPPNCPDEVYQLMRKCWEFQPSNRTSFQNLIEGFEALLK

IC50 [1] [nM] | IC50 [2] [nM] | IC50 [3] [nM] | Structure (SMILES)
> 100 | < 10 | 10 to 100 | N#CCC(C1CCCC1)n1cc2c(n1)C(=O)c1c[nH]c3nccc-2c13 (stereo not drawn) [Example 1, 3-cyclopentyl-3-{7-oxo-4,5,10,12-tetraazatetracyclo[6.6.1.0^2,6.0^11,15]pentadeca-1(15),2,5,8,11,13-hexaen-4-yl}propanenitrile]
> 100 | 10 to 100 | > 100 | N#CCC(C1CCCC1)n1ncc2c1C(=O)c1c[nH]c3nccc-2c13 (stereo not drawn) [Example 2, 3-cyclopentyl-3-{7-oxo-4,5,10,12-tetraazatetracyclo[6.6.1.0^2,6.0^11,15]pentadeca-1(15),2(6),3,8,11,13-hexaen-5-yl}propanenitrile]
> 100 | < 10 | 10 to 100 | N#CC[C@H](C1CCCC1)n1cc2c(n1)C(=O)c1c[nH]c3nccc-2c13 [Example 4, (3R)-3-cyclopentyl-3-{7-oxo-4,5,10,12-tetraazatetracyclo[6.6.1.0^2,6.0^11,15]pentadeca-1(15),2,5,8,11,13-hexaen-4-yl}propanenitrile]
